*1 amine or outer side, *2 acyl side, *3 side chain or, on linkers, in order; H or OH if unused. Where a SMILES comes first, the peptide text is derived from it. Side-chain parts run from the residue outwards. [ ]: non-standard residue; d: D form. The star is where a group is joined. γGlu = O=C(O)[C@H](CCC(=O)[*:2])N[*:1]; Palmitoyl = CCCCCCCCCCCCCCCC(=O)*; Aib = CC(C)(N)C(=O)O
Experiments:
Assay type in all cases: cell-based
[1] = target: T1, human glucagon receptor (Glucagon-R) (Homo sapiens, UniProt P47871); experiment: Glucagon receptor efficacy assay (cAMP AlphaScreen, CHO cells); settings: Table 1B; same protocol, different laboratory; read-out: EC50 hGCGR CHO-K1
T1 construct: expressed in transfected cells
Text: (§1) The cDNA encoding either the human glucagon receptor (Glucagon-R) (primary accession number P47871) or the human glucagon-like peptide 1 receptor (GLP-1R) (primary accession number P43220) were synthesized and cloned into a mammalian expression vector containing a Zeocin resistance marker.
(§2) The mammalian expression vectors encoding the Glucagon-R or the GLP-1-R were transfected into Chinese hamster ovary (CHO) cells by the Attractene method method. Stably expressing clones were obtained by Zeocin selection (250 μg/mL) upon limited dilution of cells resistant to the selection pressure. Glucagon-R and GLP-1-R cell clones expressing were picked, propagated and tested in the Glucagon-R and GLP-1-R efficacy assays as described below. One Glucagon-R expressing clone and one GLP-1-R expressing clone were chosen for compound profiling.
(§3) CHO cells expressing the human Glucagon-R, or human GLP-1-R were seeded 24 hours prior to the assay at 30,000 cells per well in 96-well microtiter plates in culture in 100 μl growth medium. On the day of analysis, growth medium was removed and the cells were washed once with 200 μl of assay buffer (Krebs-Ringer-buffer—KRBH). The buffer was removed and the cells were incubated for 15 min at room temperature in 10 μl KRBH (KRBH+10 mM HEPES, 5 mM NaHCO3, 0.1% (V/V) BSA) with 0.1 mM IBMX in deionized water containing increasing concentrations of test peptides. The reaction was stopped by the addition of lysis buffer (0.1% w/v BSA, 5 mM HEPES, 0.3% v/v Tween-20). After cell lysis for 10 min at room temperature, lysates were transferred to 384-well plates and 10 μl of acceptor/donorbead mixture as contained in the AlphaScreen™ cAMP Functional Assay Kit was added. After one hour of incubation at room temperature in the dark, the cAMP content was determined applying the AlphaScreen™ cAMP Functional Assay Kit from Perkin-Elmer according to manufacturer instructions. EC50 and relative efficacies compared to reference compounds (glucagon and GLP-1) were calculated applying computer aided curve fitting. The GLP-1/glucagon ratio is calculated as defined earlier.

[2] = target: T2, human glucagon-like peptide 1 receptor (GLP-1R) (Homo sapiens, UniProt P43220); experiment: GLP-1 receptor efficacy assay (cAMP AlphaScreen, CHO cells); settings: Table 1B; for Ratio GLP-1/Glucagon: EC50 [GLP-1R]/EC50 [Glucagon-R]; for EC50: same protocol, different laboratory, read-out: EC50 hGLP-1R CHO-K1
T2 construct: expressed in transfected cells
Text: as §1, §2, §3

[3] = target: T3, endogenous GLP-1 receptors (Mus musculus, UniProt O35659); experiment: Agonistic activity on endogenous GLP-1 receptor (cAMP, murine insulinoma cell line); settings: intracellular cAMP, 15 minutes at 26° C.; read-out: EC50 GLP-1R (murine insulinoma cells)
T3 construct: Agonistic activity of the test compounds on endogenous GLP-1 receptors; endogenous in cells
T3 sequence (O35659 22-463): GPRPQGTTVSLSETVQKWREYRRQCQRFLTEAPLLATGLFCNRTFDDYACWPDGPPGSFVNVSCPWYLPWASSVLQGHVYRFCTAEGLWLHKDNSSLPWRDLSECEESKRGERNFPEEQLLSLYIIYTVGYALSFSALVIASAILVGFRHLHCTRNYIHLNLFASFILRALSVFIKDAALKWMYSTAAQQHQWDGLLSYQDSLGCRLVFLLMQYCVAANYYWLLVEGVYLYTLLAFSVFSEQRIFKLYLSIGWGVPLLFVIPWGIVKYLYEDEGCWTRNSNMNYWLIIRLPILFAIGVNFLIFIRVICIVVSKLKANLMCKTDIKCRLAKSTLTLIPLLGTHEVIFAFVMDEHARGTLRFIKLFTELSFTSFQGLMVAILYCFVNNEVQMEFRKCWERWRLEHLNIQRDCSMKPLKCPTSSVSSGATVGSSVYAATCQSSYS
Procedure: Agonistic activity of the test compounds on endogenous GLP-1 receptors was determined using a murine insulinoma cell line. Intracellular cAMP was used an indicator of receptor activation.
Cells were cultured for 24 h at a density of 10,000 cells/well in a 384-well plate. Medium was removed and 10 μL KRBH buffer (NaCl 130 mM, KCl 3.6 mM, NaH2PO4 0.5 mM, MgSO4 0.5 mM, CaCl2) 1.5 mM) containing test compound or GLP-1 (at increasing concentrations from […] to 100 nM) or solvent control (0.1% (v/v) DMSO) was added to the wells for 15 minutes at a temperature of 26° C.
The cellular cAMP content is measured using the AlphaScreen cAMP Functional Assay Kit (Perkin Elmer). Measurement was performed using the Envision (PerkinElmer) according to manufacturer's recommendations.
All measurements were performed in quadruplicate.
Results were converted into cAMP concentrations using a cAMP standard curve prepared in KRBH buffer containing 0.1% (v/v) DMSO. The resulting cAMP curves were plotted as absolute cAMP concentrations (nM) over log (test compound concentration) and analyzed using the curve fitting program XLfit.
Parameters calculated to describe the both the potency as well as the agonistic activity of each test compound on the endogenous GLP-1 receptors were:
pEC50 (negative logarithmic value of EC50, a concentration resulting in a half-maximal elevation of cAMP levels, reflecting the potency of the test compound);
Percent control (% CTL)(% cAMP elevation for each test compound concentration normalized based on the GLP-1-induced maximum cAMP response (100% CTL)).

[4] = target: T4, endogenous glucagon receptor (Rattus norvegicus, UniProt P30082); experiment: Agonistic activity on endogenous glucagon receptor (glycogen synthesis rate in primary rat hepatocytes); settings: inhibition of glycogen synthesis rate, 3 hours, read-out: EC50 GLP-1R Rat hepat.
T4 construct: Agonistic activity of the test compounds on endogenous glucagon receptor; endogenous in cells; host or cells: primary rat hepatocytes
Procedure: Agonistic activity of the test compounds on endogenous glucagon receptor was determined by measuring their effect on rate of glycogen synthesis in primary rat hepatocytes. Upon activation of the glucagon receptor, an inhibition of the glycogen synthesis rate is expected. Rate of glycogen synthesis was determined by counting the amount of radioactively labeled glucose incorporated into the cellular glycogen stores in a defined period of time.
Primary rat hepatocytes were cultured at a density of 40,000 cells/well in a 24-well plate for 24 hours at 37° C. and 5% CO2.
Medium was discarded and the cells washed with PBS. 180 μL of KRBH-based buffer containing 0.1% BSA and glucose at a concentration of 22.5 mM was then added to the wells, followed by test compound and 40 μCi/ml D-[U14C] glucose (20 μL each). Incubation was continued for 3 hours.
At the end of the incubation period, the incubation buffer was aspirated and cells washed once with ice-cold PBS before lysis by incubation for 30 min at room temperature with 100 μL 1 mol/l NaOH.
Cell lysates were transferred to 96-well filter plates and glycogen precipitated by incubating the filter-plates for 120 min at 4° C. followed by washing the filter plates 4 times with ice-cold ethanol (70%). The resulting precipitates were filtered to dryness and the amount of incorporated ^14C-glucose determined by using a Topcount scintillation counter according to manufacturer's recommendations.
Wells with vehicle controls (0.1% (v/v) DMSO in KRBH buffer) were included as reference for non-inhibited glycogen synthesis (100% CTL). Wells without added D-[U^14C] glucose were included as controls for non-specific background signal (subtracted from all values). Endogenous glucagon peptide was used as a positive control.
All treatments were performed at least in triplicates.
Parameters calculated to describe the both the potency as well as the agonistic activity of each test compound on the endogenous glucagon receptor are pEC50 and % CTL. % CTL is determined by calculating the percentage of CPM/well in the presence of the test compound compared to the CPM/well of the vehicle control after subtracting the background CPM/well: [CPM/well(basal)−CPM/well(sample)]*100/[CPM/well(basal)−CPM/well(control)]
An activator of the glucagon receptor will result in an inhibition of the glycogen synthesis rate and will give % CTL values between 0% CTL (complete inhibition) and 100% CTL (no observable inhibition).
The resulting activity curves were plotted as absolute counts (unit: cpm/sample) over log (test compound concentration) and analyzed using the curve fitting program XLfit.
pEC50 (negative logarithmic value of EC50) reflects the potency of the test compound.
The terms EC50 and pEC50 quoted in relation to GLP-1R activation could equally be regarded as IC50 and pIC50 in relation to glycogen synthesis.

T1 sequence (P47871 26-477): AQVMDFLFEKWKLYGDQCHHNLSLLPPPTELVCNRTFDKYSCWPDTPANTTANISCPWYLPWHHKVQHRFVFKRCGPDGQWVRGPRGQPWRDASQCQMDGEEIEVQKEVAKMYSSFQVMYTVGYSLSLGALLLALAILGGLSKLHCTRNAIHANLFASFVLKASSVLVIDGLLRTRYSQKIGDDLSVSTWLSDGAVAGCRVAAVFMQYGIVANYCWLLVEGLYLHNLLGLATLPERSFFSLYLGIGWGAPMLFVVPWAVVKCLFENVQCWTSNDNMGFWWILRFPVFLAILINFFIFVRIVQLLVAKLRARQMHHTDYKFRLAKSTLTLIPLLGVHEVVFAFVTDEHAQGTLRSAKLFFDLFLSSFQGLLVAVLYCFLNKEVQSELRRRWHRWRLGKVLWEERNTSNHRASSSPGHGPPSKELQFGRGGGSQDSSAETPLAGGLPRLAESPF
T2 sequence (P43220 24-463): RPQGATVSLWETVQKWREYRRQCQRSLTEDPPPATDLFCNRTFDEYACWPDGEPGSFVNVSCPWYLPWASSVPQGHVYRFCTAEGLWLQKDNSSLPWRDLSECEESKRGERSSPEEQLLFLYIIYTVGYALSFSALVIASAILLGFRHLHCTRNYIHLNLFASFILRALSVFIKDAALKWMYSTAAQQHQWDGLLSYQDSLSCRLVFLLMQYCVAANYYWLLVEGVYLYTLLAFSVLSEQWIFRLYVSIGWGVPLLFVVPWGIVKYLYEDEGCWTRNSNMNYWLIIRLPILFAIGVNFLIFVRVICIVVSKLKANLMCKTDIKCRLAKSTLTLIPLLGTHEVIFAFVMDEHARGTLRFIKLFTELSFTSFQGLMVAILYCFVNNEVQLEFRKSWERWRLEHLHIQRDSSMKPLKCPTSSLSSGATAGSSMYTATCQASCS
T4 sequence (P30082 27-485): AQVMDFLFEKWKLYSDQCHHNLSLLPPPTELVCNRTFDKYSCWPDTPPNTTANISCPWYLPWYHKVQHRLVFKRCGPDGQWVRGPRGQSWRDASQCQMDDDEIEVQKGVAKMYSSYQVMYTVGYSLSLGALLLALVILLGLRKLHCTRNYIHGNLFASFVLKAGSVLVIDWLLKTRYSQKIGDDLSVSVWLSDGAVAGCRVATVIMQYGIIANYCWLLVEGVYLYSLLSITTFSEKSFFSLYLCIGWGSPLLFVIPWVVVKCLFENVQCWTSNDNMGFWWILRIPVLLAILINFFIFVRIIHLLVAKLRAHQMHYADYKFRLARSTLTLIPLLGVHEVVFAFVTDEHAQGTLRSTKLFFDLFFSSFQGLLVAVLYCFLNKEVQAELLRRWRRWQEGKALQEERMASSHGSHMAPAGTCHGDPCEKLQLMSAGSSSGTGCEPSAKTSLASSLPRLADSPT

EC50 [1] [nM] | Ratio GLP-1/Glucagon [2] | EC50 [2] [nM] | EC50 [3] [nM] | EC50 [4] [nM] | SMILES
0.68 | 0.34 | 0.23 | 0.27 | 0.39 | CCCCCCCCCCCCCCCC(=O)N[C@@H](CCC(=O)NCCCC[C@H](NC(=O)[C@H](CCC(=O)O)NC(=O)[C@H](CCC(=O)O)NC(=O)[C@H](CC(C)C)NC(=O)[C@H](Cc1ccc(O)cc1)NC(=O)[C@H](CCCCN)NC(=O)[C@H](CO)NC(=O)[C@H](Cc1ccc(O)cc1)NC(=O)[C@H](CC(=O)O)NC(=O)[C@H](CO)NC(=O)[C@@H](NC(=O)[C@H](Cc1ccccc1)NC(=O)[C@@H](NC(=O)CNC(=O)[C@H](CCC(N)=O)NC(=O)C(C)(C)NC(=O)[C@@H](N)Cc1c[nH]cn1)[C@@H](C)O)[C@@H](C)O)C(=O)N[C@@H](C)C(=O)N[C@@H](C)C(=O)N[C@@H](CCCCN)C(=O)N[C@@H](CC(=O)O)C(=O)N[C@@H](Cc1ccccc1)C(=O)N[C@H](C(=O)N[C@@H](CCC(=O)O)C(=O)N[C@@H](Cc1c[nH]c2ccccc12)C(=O)N[C@@H](CC(C)C)C(=O)N[C@@H](CCC(=O)O)C(=O)N[C@@H](CO)C(=O)N[C@@H](C)C(N)=O)[C@@H](C)CC)C(=O)O [Compound 20, H-H-Aib-QGTFTSDYSKYLEE-K(Hexadecanoyl-isoGlu)-AAKDFIEWLESA-NH2] (H-H[Aib]QGTFTSDYSKYLEEK([γGlu-Palmitoyl])AAKDFIEWLESA-NH2)
1.32 | 0.09 | 0.12 | 0.3 | 3.4 | CCCCCCCCCCCCCCCC(=O)N[C@@H](CCC(=O)NCCCC[C@H](NC(=O)[C@H](CO)NC(=O)[C@H](CCC(=O)O)NC(=O)[C@H](CC(C)C)NC(=O)[C@H](Cc1ccc(O)cc1)NC(=O)[C@H](CCCCN)NC(=O)[C@H](CO)NC(=O)[C@H](Cc1ccc(O)cc1)NC(=O)[C@H](CC(=O)O)NC(=O)[C@H](CO)NC(=O)[C@@H](NC(=O)[C@H](Cc1ccccc1)NC(=O)[C@@H](NC(=O)CNC(=O)[C@H](CCC(N)=O)NC(=O)C(C)(C)NC(=O)[C@@H](N)Cc1c[nH]cn1)[C@@H](C)O)[C@@H](C)O)C(=O)N[C@@H](C)C(=O)N[C@@H](C)C(=O)N[C@@H](CCC(=O)O)C(=O)N[C@@H](CC(=O)O)C(=O)N[C@@H](Cc1ccccc1)C(=O)N[C@H](C(=O)N[C@@H](CCC(=O)O)C(=O)N[C@@H](Cc1c[nH]c2ccccc12)C(=O)N[C@@H](CC(C)C)C(=O)N[C@@H](CCC(=O)O)C(=O)N[C@@H](CO)C(=O)N[C@@H](C)C(N)=O)[C@@H](C)CC)C(=O)O [Compound 21, H-H-Aib-QGTFTSDYSKYLES-K(Hexadecanoyl-isoGlu)-AAEDFIEWLESA-NH2] (H-H[Aib]QGTFTSDYSKYLESK([γGlu-Palmitoyl])AAEDFIEWLESA-NH2)
0.1 | 2.40 | 0.24 | 0.35 | 0.28 | CCCCCCCCCCCCCCCC(=O)N[C@@H](CCC(=O)NCCCC[C@H](NC(=O)[C@H](CCC(=O)O)NC(=O)[C@H](CCC(=O)O)NC(=O)[C@H](CC(C)C)NC(=O)[C@H](Cc1ccc(O)cc1)NC(=O)[C@H](CCCCN)NC(=O)[C@H](CO)NC(=O)[C@H](Cc1ccc(O)cc1)NC(=O)[C@H](CC(=O)O)NC(=O)[C@H](CO)NC(=O)[C@@H](NC(=O)[C@H](Cc1ccccc1)NC(=O)[C@@H](NC(=O)CNC(=O)[C@H](CCC(N)=O)NC(=O)[C@H](CO)NC(=O)[C@@H](N)Cc1c[nH]cn1)[C@@H](C)O)[C@@H](C)O)C(=O)N[C@@H](C)C(=O)N[C@@H](C)C(=O)N[C@@H](CCCCN)C(=O)N[C@@H](CC(=O)O)C(=O)N[C@@H](Cc1ccccc1)C(=O)N[C@H](C(=O)N[C@@H](CCC(=O)O)C(=O)N[C@@H](Cc1c[nH]c2ccccc12)C(=O)N[C@@H](CC(C)C)C(=O)N[C@@H](CCC(=O)O)C(=O)N[C@@H](CO)C(=O)N[C@@H](C)C(N)=O)[C@@H](C)CC)C(=O)O [Compound 22, H-HSQGTFTSDYSKYLEE-K(Hexadecanoyl-isoGlu)-AAKDFIEWLESA-NH2] (H-HSQGTFTSDYSKYLEEK([γGlu-Palmitoyl])AAKDFIEWLESA-NH2)

Reference: patent publication US10253081B2, “Glucagon analogues” (Zealand Pharma A/S, priority 2012, dated 2019)
